Measured values as given in US20250230193A1, “CYCLIC COMPOUND HAVING SELECTIVE KRAS INHIBITORY EFFECT ON HRAS AND NRAS” (CHUGAI SEIYAKU KABUSHIKI KAISHA, priority 2022, published 2025).

How the values were obtained:
[1] = target: GDP-bound HRAS wild-type protein (Homo sapiens, UniProt P01112); test: Binding to HRAS by surface plasmon resonance (SPR), Single Cycle Kinetics; settings: SPR, GDP-bound HRAS wild-type vs GDP-bound KRAS wild-type
[2] = target: GDP-bound NRAS wild-type protein (Homo sapiens, UniProt P01111); test: Binding to NRAS by surface plasmon resonance (SPR), Single Cycle Kinetics; settings: SPR, GDP-bound NRAS wild-type vs GDP-bound KRAS wild-type
Chain of GDP-bound NRAS wild-type protein (P01111 whole entry): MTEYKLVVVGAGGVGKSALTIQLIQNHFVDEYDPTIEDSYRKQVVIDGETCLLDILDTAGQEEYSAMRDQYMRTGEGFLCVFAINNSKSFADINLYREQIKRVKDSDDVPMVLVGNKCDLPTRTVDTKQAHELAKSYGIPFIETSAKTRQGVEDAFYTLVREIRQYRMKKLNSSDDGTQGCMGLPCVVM

Chain of GDP-bound HRAS wild-type protein (P01112 whole entry): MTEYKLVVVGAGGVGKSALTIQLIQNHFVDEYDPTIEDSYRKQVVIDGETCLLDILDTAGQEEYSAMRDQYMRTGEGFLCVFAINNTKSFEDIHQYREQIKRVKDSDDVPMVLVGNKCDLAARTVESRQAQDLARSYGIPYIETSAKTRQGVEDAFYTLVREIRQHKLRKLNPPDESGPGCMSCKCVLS

Compound | HRAS/KRAS (ratio of KD value with respect to HRAS to KD value with respect to KRAS) [1] | NRAS/KRAS (ratio of KD value with respect to NRAS to KD value with respect to KRAS) [2]
CC[C@H](C)[C@@H]1NC(=O)[C@H](CC(C)C)N(C)C(=O)C[C@@H](C(=O)N(C)C)N(C)C(=O)[C@H](C2CCCC2)N(C)C(=O)C2(CC(C)(C)C2)NC(=O)[C@@H]2C[C@@H](C)CN2C(=O)[C@H](CCc2cc(F)c(C(F)(F)F)c(F)c2)NC(=O)CN(C)C(=O)[C@H](Cc2ccc(C)cc2)N2CC/C=C\C[C@@H](C2=O)N(C)C(=O)CN(C)C1=O [PP2223] | A (a compound having 10 or more and less than 20 is denoted as A) | A (a compound having 10 or more and less than 20 is denoted as A)
CCC[C@H]1C(=O)N[C@@H]([C@@H](C)CC)C(=O)N(C)CC(=O)N(C)[C@H]2C/C=C\CCN(C2=O)[C@@H](Cc2ccc(C)cc2)C(=O)N(C)CC(=O)N[C@@H](CCc2ccc(C(F)(F)F)c(Cl)c2)C(=O)N2C[C@H](OCC)C[C@H]2C(=O)NC2(CC(C)(C)C2)C(=O)N(C)[C@@H](CC(C)C)C(=O)N(C)[C@H](C(=O)N(C)C)CC(=O)N1C [PP2224] | A (a compound having 10 or more and less than 20 is denoted as A) | A (a compound having 10 or more and less than 20 is denoted as A)
CCCOC[C@H]1C(=O)N[C@@H]([C@@H](C)CC)C(=O)N(C)CC(=O)N(C)[C@H]2C/C=C\CCN(C2=O)[C@@H](Cc2ccc(C)cc2)C(=O)N(C)CC(=O)N[C@@H](CCc2cc(F)c(C(F)(F)F)c(F)c2)C(=O)N2C[C@H](C)C[C@H]2C(=O)NC2(CCCC2)C(=O)N(C)[C@@H](C2CCCC2)C(=O)N(C)[C@H](C(=O)N(C)C)CC(=O)N1C [PP2225] | A (a compound having 10 or more and less than 20 is denoted as A) | A (a compound having 10 or more and less than 20 is denoted as A)
CCC[C@H]1C(=O)N[C@@H]([C@@H](C)CC)C(=O)N(C)CC(=O)N(C)[C@H]2C/C=C\CCN(C2=O)[C@@H](Cc2ccc(C)cc2)C(=O)N(C)CC(=O)N[C@@H](CCc2ccc(C(F)(F)F)c(Cl)c2)C(=O)N2C[C@H](OCC)C[C@H]2C(=O)NC2(CC(C)(C)C2)C(=O)N(C)[C@@H](CC(F)(F)F)C(=O)N(C)[C@H](C(=O)N(C)C)CC(=O)N1C [PP2226] | A (a compound having 10 or more and less than 20 is denoted as A) | A (a compound having 10 or more and less than 20 is denoted as A)
CCC[C@@H]1C[C@H]2C(=O)NC3(CCCC3)C(=O)N(C)[C@@H](C3CCCC3)C(=O)N(C)[C@H](C(=O)N(C)C)CC(=O)N(C)[C@@H](CC)C(=O)N[C@@H]([C@@H](C)CC)C(=O)N(C)CC(=O)N(C)[C@H]3C/C=C\CCN(C3=O)[C@@H](Cc3ccc(C)cc3)C(=O)N(C)CC(=O)N[C@@H](CCc3cc(F)c(C(F)(F)F)c(F)c3)C(=O)N2C1 [PP2227] | A (a compound having 10 or more and less than 20 is denoted as A) | A (a compound having 10 or more and less than 20 is denoted as A)
CCCOC[C@H]1C(=O)N[C@@H]([C@@H](C)CC)C(=O)N(C)CC(=O)N(C)[C@H]2C/C=C\CCN(C2=O)[C@@H](Cc2ccc(C)cc2)C(=O)N(C)CC(=O)N[C@@H](CCc2cc(F)c(C(F)(F)F)c(F)c2)C(=O)N2C[C@H](CCC)C[C@H]2C(=O)NC2(CCCC2)C(=O)N(C)[C@@H](C2CCCC2)C(=O)N(C)[C@H](C(=O)N(C)C)CC(=O)N1C [PP2229] | A (a compound having 10 or more and less than 20 is denoted as A) | A (a compound having 10 or more and less than 20 is denoted as A)
CCC[C@H]1C(=O)N[C@@H]([C@@H](C)CC)C(=O)N(C)CC(=O)N(C)[C@H]2C/C=C\CCN(C2=O)[C@@H](Cc2ccc(C)cc2)C(=O)N(C)CC(=O)N[C@@H](CCc2ccc(C(F)(F)F)c(Cl)c2)C(=O)N2C[C@H](OCC)C[C@H]2C(=O)NC2(CC(C)(C)C2)C(=O)N(C)[C@@H](CC(C)(C)C)C(=O)N(C)[C@H](C(=O)N(C)C)CC(=O)N1C [PP2230] | A (a compound having 10 or more and less than 20 is denoted as A) | A (a compound having 10 or more and less than 20 is denoted as A)
CCC[C@@H]1C[C@H]2C(=O)NC3(CCC3)C(=O)N(C)[C@@H](C3CCCC3)C(=O)N(C)[C@H](C(=O)N(C)C)CC(=O)N(C)[C@@H](CC(C)C)C(=O)N[C@@H]([C@@H](C)CC)C(=O)N(C)CC(=O)N(C)[C@H]3C/C=C\CCN(C3=O)[C@@H](Cc3ccc(C)cc3)C(=O)N(C)CC(=O)N[C@@H](CCc3cc(F)c(C(F)(F)F)c(F)c3)C(=O)N2C1 [PP2231] | B (a compound having 3 or more and less than 10 is denoted as B) | A (a compound having 10 or more and less than 20 is denoted as A)
CCCOC[C@H]1C(=O)N[C@@H]([C@@H](C)CC)C(=O)N(C)CC(=O)N(C)[C@H]2C/C=C\CCN(C2=O)[C@@H](Cc2ccc(C)cc2)C(=O)N(C)CC(=O)N[C@@H](CCc2cc(F)c(C(F)(F)F)c(F)c2)C(=O)N2C[C@H](CCC)C[C@H]2C(=O)NC2(CCC2)C(=O)N(C)[C@@H](C2CCCC2)C(=O)N(C)[C@H](C(=O)N(C)C)CC(=O)N1C [PP2232] | A (a compound having 10 or more and less than 20 is denoted as A) | A (a compound having 10 or more and less than 20 is denoted as A)
CCC[C@@H]1C[C@H]2C(=O)NC3(CCC3)C(=O)N(C)[C@@H](C3CCCC3)C(=O)N(C)[C@H](C(=O)N(C)C)CC(=O)N(C)[C@@H](CC)C(=O)N[C@@H]([C@@H](C)CC)C(=O)N(C)CC(=O)N(C)[C@H]3C/C=C\CCN(C3=O)[C@@H](Cc3ccc(C)cc3)C(=O)N(C)CC(=O)N[C@@H](CCc3cc(F)c(C(F)(F)F)c(F)c3)C(=O)N2C1 [PP2233] | A (a compound having 10 or more and less than 20 is denoted as A) | A (a compound having 10 or more and less than 20 is denoted as A)
CCCOC[C@H]1C(=O)N[C@@H]([C@@H](C)CC)C(=O)N(C)CC(=O)N(C)[C@H]2C/C=C\CCN(C2=O)[C@@H](Cc2ccc(C)cc2)C(=O)N(C)CC(=O)N[C@@H](CCc2ccc(C(F)(F)F)c(Cl)c2)C(=O)N2C[C@H](C)C[C@H]2C(=O)NC2(CC(C)(C)C2)C(=O)N(C)[C@@H](C2CCCC2)C(=O)N(C)[C@H](C(=O)N(C)C)CC(=O)N1C [PP2234] | A (a compound having 10 or more and less than 20 is denoted as A) | A (a compound having 10 or more and less than 20 is denoted as A)
